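Five compound concentrations were applied to cells in 96-well plates for 48 hours; endpoints were derived by simple linear interpolation of the resulting dose-response curve. At the GI50, growth is halved. TGI is the concentration that stops growth completely.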
Legend:
Assay in all cases: NCI tumour cell line growth inhibition, 48 h
DMS 114 small cell lung = system: DMS 114 small cell lung
KM20L2 colon = system: KM20L2 colon
LXFL 529 NSCLC = system: LXFL 529 NSCLC
M19-MEL melanoma = system: M19-MEL melanoma
MDA-N = system: MDA-N
T-47D breast = system: T-47D breast
SNB-78 CNS = system: SNB-78 CNS
RXF-631 renal = system: RXF-631 renal

| Compound | TGI (KM20L2 colon) [µM] | TGI (M19-MEL melanoma) [µM] | TGI (T-47D breast) [µM] | GI50 (T-47D breast) [µM] | other results |
| --- | --- | --- | --- | --- | --- |
| O=C(/C=N/O)Nc1cccc(Cl)c1I | > 100 | > 100 |  |  | TGI (DMS 114 small cell lung): 79.2 µM; TGI (LXFL 529 NSCLC): > 100 µM |
| CC(=O)OCCc1cc2ccccc2oc1=O |  |  | > 100 |  | TGI (MDA-N): > 100 µM |
| COc1cc(OC)c(OC)cc1/C=C\c1ccnc2ccccc12 | 6.86 | > 100 | > 100 |  | TGI (LXFL 529 NSCLC): > 100 µM; TGI (MDA-N): 0.791 µM; TGI (SNB-78 CNS): > 100 µM |
| CCOc1ccccc1NC(=O)C1=C(C)NC(C)=C(C(=O)Nc2ccccc2OCC)C1c1ccc2c(c1)OCO2 | > 100 | > 100 |  |  | TGI (DMS 114 small cell lung): > 100 µM; TGI (LXFL 529 NSCLC): > 100 µM; TGI (SNB-78 CNS): 95.6 µM |
| COc1ccc(S(=O)(=O)NNS(C)(=O)=O)cc1OC | > 100 | > 100 |  |  | TGI (LXFL 529 NSCLC): > 100 µM |
| Clc1ccc(/C=C/c2csnn2)cc1 | > 100 | > 100 |  |  | TGI (DMS 114 small cell lung): > 100 µM; TGI (LXFL 529 NSCLC): > 100 µM; TGI (SNB-78 CNS): > 100 µM |
| Cc1cc(=O)[nH]c2c1C(=O)c1c(C)cc(=O)n(C)c1C2=O |  |  | 0.848 |  | TGI (MDA-N): 0.0331 µM |
| Cc1ccc(-n2cc(/C(N)=N/O)c3ccccc3c2=O)cc1 | > 100 | > 100 |  |  | TGI (DMS 114 small cell lung): > 100 µM; TGI (LXFL 529 NSCLC): > 100 µM |
| CC(C)OC(=O)c1cc(NC(=S)OC(C)C)ccc1Cl |  |  | > 57.6 |  | TGI (MDA-N): 50 µM |
| NCC[PH+](c1ccccc1)c1ccccc1.NCC[PH+](c1ccccc1)c1ccccc1.[Cl-].[Pt+4] |  |  | > 100 | > 100 | GI50 (MDA-N): > 100 µM; TGI (MDA-N): > 100 µM |
| Cn1cc(C2=C(c3cccc([N+](=O)[O-])c3)C(=O)NC2=O)c2ccccc21 |  |  | 19.4 | 6.32 |  |
| O=C(NCCNC1=CC(=O)c2nc3ccccc3c3ccnc1c23)c1cnccn1 |  |  | > 100 | 44.7 |  |
| CN(Cc1cnc2nc(N)nc(N)c2n1)c1c(Cl)cc(C(=O)NC(CCC(=O)O)C(=O)O)cc1Br (configuration not stated) |  |  | > 100 | 0.261 |  |
| CC1(C)N=C(N)N=C(N)N1c1ccc(CCCCCCc2ccc(S(=O)(=O)F)cc2)cc1 |  |  | 52 |  |  |
| O=C([CH-]C(=O)c1ccccc1)c1ccccc1.[CH2-]C.[CH2-]C.[Tl+3] | > 100 |  | > 100 | 17 | GI50 (KM20L2 colon): 27.4 µM |
| COc1ccc(C2C(C(=O)O)=C(COC(C)=O)Oc3cc4c(cc32)OCO4)c(OC)c1 (configuration not stated) | > 100 | > 100 |  |  | TGI (DMS 114 small cell lung): > 100 µM; TGI (RXF-631 renal): > 100 µM; TGI (SNB-78 CNS): > 100 µM |
| COc1ccc(-c2nc3sccn3c2/C=C/C(=O)c2cc(OC)c(OC)c(OC)c2)cc1 |  |  | 8.28 | 1.86 |  |
| CCCCCCC1CCCCN1C(c1ccccc1)C(O)c1ccccc1 (configuration not stated) |  |  | 19.1 | 4.68 |  |
| O=[N+]([O-])/C=C/c1cn(CCCCCCCCn2cc(/C=C/[N+](=O)[O-])c3ccccc32)c2ccccc12 |  |  | > 10 |  | TGI (MDA-N): > 10 µM |
| Nc1cccc(C(=O)/C=C/c2ccccc2O)c1 | > 100 | > 100 |  |  | TGI (DMS 114 small cell lung): > 100 µM; TGI (LXFL 529 NSCLC): > 100 µM; TGI (SNB-78 CNS): > 100 µM |
| Cc1cccc(NC(=O)CSc2nnc(-c3ccc(N=Cc4ccc(Cl)cc4)cc3)o2)c1 | > 100 | > 100 |  |  | TGI (DMS 114 small cell lung): > 100 µM; TGI (LXFL 529 NSCLC): > 100 µM; TGI (SNB-78 CNS): > 100 µM |

| Compound | TGI (KM20L2 colon) [µM] | TGI (M19-MEL melanoma) [µM] | TGI (T-47D breast) [µM] | GI50 (T-47D breast) [µM] | other results |
| --- | --- | --- | --- | --- | --- |
| NC(=O)C1C(=O)Oc2cccnc21 (configuration not stated) | > 100 | > 100 |  |  | TGI (DMS 114 small cell lung): > 100 µM |
| C=C(c1ccc(C(=O)NCCCn2ccnc2)cc1)c1cc2c(cc1C)C(C)(C)CCC2(C)C |  |  | 6.76 | 0.281 |  |
| COc1cc(C(=O)/C=C/c2c(C)n([O-])c3ccc(Cl)cc3[n+]2=O)cc(OC)c1OC |  |  | 27.9 | 3.18 |  |
| COC1CCC(OS(C)(=O)=O)C(C)O1 (configuration not stated) |  |  | > 10 |  | TGI (MDA-N): > 10 µM |
| COc1ccc2c(c1)CCC1C2CCC2(C)C(NC(=O)CCCCC3CCSS3)CCC12 (configuration not stated) |  |  | > 100 | 3.56 |  |
| COc1ccc(/C(C#N)=C2/O/C(=N/N)C(c3ccc(OC)c(OC)c3)C2=O)cc1OC (configuration not stated) | > 100 | > 100 |  |  | TGI (LXFL 529 NSCLC): > 100 µM; TGI (SNB-78 CNS): > 100 µM |
| COc1cc(C(=O)Nc2ccc(-c3nc4ccccc4[nH]3)cc2)cc(OC)c1OC |  |  | 23.4 | 5.39 |  |
| CCOC1OC(C)(C=C(C#N)C#N)CCC1C (configuration not stated) |  |  | > 100 |  | TGI (MDA-N): > 100 µM |
| COc1ccccc1CNCCCN1C(=O)c2ccc3c4c(ccc(c24)C1=O)C(=O)N(CCCNCCCCN)C3=O |  |  | 2.4 | 0.573 |  |
| COc1cc(/C=C/C(=O)/C=C/c2ccc(-n3ccnc3)cc2)ccc1O |  |  | 9.92 | 2.98 |  |
| CNc1ccc(CSc2ccc(C)cc2)cc1 |  |  | > 100 | 13.5 |  |
| c1ccc(-c2nc3ccccc3[nH]2)c(OCCCCCOc2ccccc2-c2nc3ccccc3[nH]2)c1 |  |  | 18.6 | 3.18 |  |
| CCOC(=O)C(=O)Nc1nc2ccc(OC)cc2s1 | > 100 | > 100 |  |  | TGI (LXFL 529 NSCLC): > 100 µM; TGI (SNB-78 CNS): > 100 µM |
| Fc1cccc(C2ON=C(c3ccccc3)N2C23CC4CC(CC(C4)C2)C3)c1 (configuration not stated) |  |  | > 10 |  | TGI (MDA-N): > 10 µM |
| CN(C)CCC(/C=C/c1ccccc1)=N\Nc1c(F)c(F)c(F)c(F)c1F |  | > 100 |  |  | TGI (DMS 114 small cell lung): > 100 µM; TGI (LXFL 529 NSCLC): > 100 µM; TGI (SNB-78 CNS): > 100 µM |
| Clc1cc(Cl)cc(Nc2ccc3c(OCCCN4CCOCC4)cccc3n2)c1 |  |  | 18.2 | 4.91 |  |
| Nc1c([N+](=O)[O-])ncn1C1OC(CO)C(O)C1O (configuration not stated) |  |  | > 100 | > 100 |  |
| COc1ccc(C2=NOC3=c4ccccc4=CSC3=C2c2ccccc2)cc1 |  |  | 73.9 | 30.3 |  |
| O=C(/C=C/c1ccccn1)c1ccccc1 |  |  | 24.4 | 4.87 |  |
| CCOc1ccc(N=Nc2c(-c3ccccc3)nn(C(=O)CC(=O)Nc3ccccc3Cl)c2-c2ccccc2)cc1 | > 100 | > 100 |  |  | TGI (DMS 114 small cell lung): > 100 µM; TGI (LXFL 529 NSCLC): > 100 µM; TGI (SNB-78 CNS): > 100 µM |
| COc1ccc(N=C2C(=O)Nc3ccc(Br)cc32)cc1 |  |  | 74.6 |  | TGI (MDA-N): 30.3 µM |

| Compound | TGI (KM20L2 colon) [µM] | TGI (M19-MEL melanoma) [µM] | TGI (T-47D breast) [µM] | GI50 (T-47D breast) [µM] | other results |
| --- | --- | --- | --- | --- | --- |
| O=C(Cn1ccnc1[N+](=O)[O-])NCc1ccc(F)cc1 | > 100 | > 100 |  |  | TGI (DMS 114 small cell lung): > 100 µM; TGI (LXFL 529 NSCLC): > 100 µM; TGI (RXF-631 renal): > 100 µM |
| COc1cc([N+](=O)[O-])c(S(=O)(=O)O)cc1-[n+]1nc(C(=O)Nc2ccccc2)nn1-c1ccc([N+](=O)[O-])c(S(=O)(=O)[O-])c1 |  |  | > 100 |  | TGI (MDA-N): > 100 µM |
| COc1cc(-c2ccc[nH]2)[nH]c1/C=C1\N=C(C)C(C(=O)NC(C)C)=C1C |  |  | 10.7 | 3.02 |  |
| COC(=O)C1C(=O)NC2(C)CC1c1ccccc1O2 (configuration not stated) |  | > 100 |  |  | TGI (DMS 114 small cell lung): > 100 µM; TGI (LXFL 529 NSCLC): > 100 µM; TGI (SNB-78 CNS): > 100 µM |
| CC(C)(C)OC(=O)CC(S(=O)(=O)c1ccccc1)S(=O)(=O)c1ccccc1 |  |  | 4.48 | 2.32 |  |
| COC(=O)c1sc(=S)c2sc(C(=O)OC)c(C(=O)OC)c2c1C(=O)OC |  |  | > 100 | 77.7 |  |
| CN(C)CN(C)c1nc(N(C)C)nc(N(C)C)n1 | > 100 | > 100 |  |  | TGI (DMS 114 small cell lung): > 100 µM; TGI (LXFL 529 NSCLC): > 100 µM; TGI (SNB-78 CNS): > 100 µM |
| O=[N+]([O-])/C(=C/C=C/c1ccccc1)c1ccccc1 |  |  | 5.28 | 2.07 |  |
| COc1cc(COC(=O)N(C)[C@@H](Cc2ccccc2)C(=O)O)c([N+](=O)[O-])cc1OC |  |  | > 100 |  | TGI (MDA-N): > 100 µM |
| COc1cc2c(c(OC)c1OC)-c1ccc(SC)c(=O)cc1C(CC(=O)Oc1ccccc1F)C2 (configuration not stated) | 0.0252 | > 7.5 |  |  | TGI (DMS 114 small cell lung): 0.0438 µM; TGI (LXFL 529 NSCLC): > 7.5 µM; TGI (SNB-78 CNS): > 7.5 µM |
| c1ccc2[nH]c(-c3cscn3)nc2c1 |  |  | > 100 |  | TGI (MDA-N): > 100 µM |
| CN1CCC(C(=O)Nc2n[nH]c3nnc(-c4ccccc4)cc23)CC1 |  |  | > 25 | > 25 |  |
| CC1(C)O[C@@H](CCl)C[C@@H](C#N)O1 | > 100 | > 100 |  |  | TGI (DMS 114 small cell lung): > 100 µM; TGI (SNB-78 CNS): > 100 µM |
| Cc1nc2sc(C(=O)Nc3cccc(Cl)c3)c(N)c2cc1C(O)c1ccccc1 (configuration not stated) |  |  | 33 | 0.997 |  |
| Cc1cn([C@H]2CN(O)C[C@@H](CO)O2)c(=O)[nH]c1=O |  |  | > 100 |  | TGI (MDA-N): > 100 µM |
| O=C(CC/C(CC(=O)c1ccc(Cl)cc1)=N\O)Nc1cccc(Cl)c1 | > 100 | > 100 |  |  | TGI (DMS 114 small cell lung): > 100 µM; TGI (LXFL 529 NSCLC): > 100 µM; TGI (SNB-78 CNS): > 100 µM |
| O=c1ccc(=O)c2c1c1[nH]c3ccccc3c1c1c(=O)c3ccccc3c(=O)c21 |  |  | > 10 |  |  |
| COc1ccc([C@H]2c3[nH]c4ccccc4c3C[C@H]3C(=O)N(CCCCCCC(=O)NO)CC(=O)N23)cc1 |  |  | 25.6 | 0.952 |  |
| CC(=O)O[C@H]1C(=O)[C@@]2(C)C([C@H](OC(=O)c3ccccc3)[C@]3(O)C[C@H](OC(=O)[C@H](O)[C@@H](NC(=O)c4ccc(Cl)cc4)c4ccccc4)C(C)=C1C3(C)C)C1(OC(C)=O)CO[C@@H]1C[C@@H]2O (some centres not stated) | > 100 | 14.1 | 25 |  | TGI (LXFL 529 NSCLC): 57.2 µM; TGI (MDA-N): 0.0195 µM |
